Common to all, as to format: biochemical
Assay [1] has as its target T1, HDAC6 enzyme (Homo sapiens, UniProt Q9UBN7).
T1 construct: transducing full length HDAC1 and HDAC6 genes into Sf-9 insect cells; GST; purchased SignalChem; host or cells: Sf-9 insect cells
T1 sequence (Q9UBN7 1-1215): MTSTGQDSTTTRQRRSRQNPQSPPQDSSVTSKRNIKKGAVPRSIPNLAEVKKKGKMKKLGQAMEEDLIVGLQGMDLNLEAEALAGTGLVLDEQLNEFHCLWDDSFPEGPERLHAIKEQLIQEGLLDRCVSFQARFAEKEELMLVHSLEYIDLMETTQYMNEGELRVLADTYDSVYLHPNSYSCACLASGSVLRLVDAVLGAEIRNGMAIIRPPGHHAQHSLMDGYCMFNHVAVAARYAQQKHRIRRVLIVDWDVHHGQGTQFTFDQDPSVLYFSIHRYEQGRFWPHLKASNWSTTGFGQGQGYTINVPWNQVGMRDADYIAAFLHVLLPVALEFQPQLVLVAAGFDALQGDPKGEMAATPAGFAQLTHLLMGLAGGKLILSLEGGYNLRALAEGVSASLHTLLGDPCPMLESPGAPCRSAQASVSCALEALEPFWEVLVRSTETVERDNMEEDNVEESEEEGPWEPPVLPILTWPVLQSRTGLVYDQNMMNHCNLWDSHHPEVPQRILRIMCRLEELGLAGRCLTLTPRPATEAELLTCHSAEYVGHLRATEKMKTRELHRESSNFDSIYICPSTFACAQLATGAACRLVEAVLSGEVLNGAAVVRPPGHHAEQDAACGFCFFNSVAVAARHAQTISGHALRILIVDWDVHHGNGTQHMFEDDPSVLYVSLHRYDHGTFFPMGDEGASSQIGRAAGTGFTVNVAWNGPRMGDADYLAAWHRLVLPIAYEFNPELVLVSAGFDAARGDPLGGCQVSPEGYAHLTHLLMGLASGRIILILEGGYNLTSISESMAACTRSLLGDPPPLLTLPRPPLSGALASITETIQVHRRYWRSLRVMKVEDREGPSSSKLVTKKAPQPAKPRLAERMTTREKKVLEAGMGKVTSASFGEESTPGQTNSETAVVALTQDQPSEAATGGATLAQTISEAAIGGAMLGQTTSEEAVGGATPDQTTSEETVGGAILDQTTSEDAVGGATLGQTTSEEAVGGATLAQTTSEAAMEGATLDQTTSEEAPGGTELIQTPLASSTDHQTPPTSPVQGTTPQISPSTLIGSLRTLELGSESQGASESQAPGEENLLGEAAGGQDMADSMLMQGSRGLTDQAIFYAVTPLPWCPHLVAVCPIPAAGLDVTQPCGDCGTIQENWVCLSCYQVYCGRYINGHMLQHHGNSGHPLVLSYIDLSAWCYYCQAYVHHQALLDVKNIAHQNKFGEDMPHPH
The assay can be described thus: HDAC1/6 Enzyme Inhibitory Assay (HDAC-Glo I/II Assay kit), HDAC6. The note with it: 1 μM test compound, wells without enzyme = 100% inhibition; for inhibition at 1 µM: read-out: HDAC6 inhibitory rate (%) (1 μM). The method, boiled down: (§1)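 Full-length human HDAC1 or HDAC6, GST-purified from Sf-9 cells, was preincubated with compound for 60 min at room temperature in Tris-HCl pH 7.5 buffer with MgCl2, KCl, NaCl, glutathione and Tween-20. HDAC-Glo I/II substrate-developer was then added and reacted for 20 min before luminescence was read. Inhibition was set relative to no-enzyme wells as 100% inhibition.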

The target of assay [2] is T2, HDAC1 enzyme (Homo sapiens, UniProt Q13547).
T2 construct: transducing full length HDAC1 and HDAC6 genes into Sf-9 insect cells; GST; purchased SignalChem; host or cells: Sf-9 insect cells
T2 sequence (Q13547 whole entry): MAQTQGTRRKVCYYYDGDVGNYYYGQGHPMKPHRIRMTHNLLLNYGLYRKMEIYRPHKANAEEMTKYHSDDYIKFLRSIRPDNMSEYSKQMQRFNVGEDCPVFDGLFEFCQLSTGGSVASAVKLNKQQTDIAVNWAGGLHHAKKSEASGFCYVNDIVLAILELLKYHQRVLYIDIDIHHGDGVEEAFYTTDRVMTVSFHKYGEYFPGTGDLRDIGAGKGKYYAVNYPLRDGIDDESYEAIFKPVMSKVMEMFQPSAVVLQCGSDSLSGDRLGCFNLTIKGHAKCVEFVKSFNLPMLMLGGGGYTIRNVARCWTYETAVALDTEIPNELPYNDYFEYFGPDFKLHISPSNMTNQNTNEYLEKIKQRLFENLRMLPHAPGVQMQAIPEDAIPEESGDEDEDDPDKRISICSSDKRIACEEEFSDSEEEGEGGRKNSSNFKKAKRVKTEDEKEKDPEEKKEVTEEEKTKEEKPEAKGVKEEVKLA
In words: HDAC1/6 Enzyme Inhibitory Assay (HDAC-Glo I/II Assay kit), HDAC1. To be noted: 1 μM test compound, wells without enzyme = 100% inhibition; for inhibition at 1 µM: read-out: HDAC1 inhibitory rate (%) (1 μM). The method, boiled down:
as §1

The target in assay [3] is T3, HDAC9 enzyme (Homo sapiens, UniProt Q9UKV0).
T3 construct: transducing full length HDAC9 gene into Sf-9 insect cells; made in house; host or cells: Sf-9 insect cells
T3 sequence (Q9UKV0 whole entry, species assumed): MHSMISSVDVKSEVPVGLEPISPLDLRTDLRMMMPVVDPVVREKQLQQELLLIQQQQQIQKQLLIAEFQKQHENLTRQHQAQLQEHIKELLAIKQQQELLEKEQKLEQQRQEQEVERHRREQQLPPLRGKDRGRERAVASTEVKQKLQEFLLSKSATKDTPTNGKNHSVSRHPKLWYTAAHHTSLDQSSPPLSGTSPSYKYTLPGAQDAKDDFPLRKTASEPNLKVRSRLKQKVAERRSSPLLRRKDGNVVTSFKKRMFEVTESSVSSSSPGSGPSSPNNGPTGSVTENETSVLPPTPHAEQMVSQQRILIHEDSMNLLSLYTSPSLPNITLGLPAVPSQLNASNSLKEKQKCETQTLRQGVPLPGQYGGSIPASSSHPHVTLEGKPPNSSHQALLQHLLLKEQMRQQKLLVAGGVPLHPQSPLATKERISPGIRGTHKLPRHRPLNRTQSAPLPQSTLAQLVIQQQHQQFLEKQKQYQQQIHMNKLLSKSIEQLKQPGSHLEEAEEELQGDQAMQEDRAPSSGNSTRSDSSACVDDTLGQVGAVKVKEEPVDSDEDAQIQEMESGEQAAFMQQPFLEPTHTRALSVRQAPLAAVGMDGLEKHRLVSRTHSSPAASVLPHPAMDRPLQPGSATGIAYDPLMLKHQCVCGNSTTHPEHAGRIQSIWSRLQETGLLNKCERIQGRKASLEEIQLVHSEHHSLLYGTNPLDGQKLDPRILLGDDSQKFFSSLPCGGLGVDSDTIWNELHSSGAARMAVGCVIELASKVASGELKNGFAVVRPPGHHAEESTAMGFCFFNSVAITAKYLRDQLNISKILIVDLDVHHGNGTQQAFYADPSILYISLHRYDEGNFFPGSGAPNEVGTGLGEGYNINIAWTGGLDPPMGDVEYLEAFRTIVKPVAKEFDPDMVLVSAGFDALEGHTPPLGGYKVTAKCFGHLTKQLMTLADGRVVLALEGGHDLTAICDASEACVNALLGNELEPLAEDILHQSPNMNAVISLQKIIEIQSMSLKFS
In words: HDAC9 Enzyme Inhibitory Assay (HDAC-Glo class IIa). To be noted: 1 μM test compound, wells without enzyme = 100% inhibition; for inhibition at 1 µM: read-out: HDAC9 inhibitory rate (%) (1 μM). Summed up:
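Full-length human HDAC9 from Sf-9 cells, Ni-NTA purified, preincubated with compound for 60 min at room temperature in Tris-HCl pH 7.5 buffer (MgCl2, KCl, NaCl, glutathione, Tween-20). HDAC-Glo class IIa substrate-developer added; luminescence read after 20 min, with no-enzyme wells defining 100% inhibition.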

Regarding `N[C@H]1CCCC[C@H]1N1Cc2ccc(-c3noc(C(F)(F)F)n3)cc2C1=O` (relative stereo) [Example 199, 2-(cis-2-aminocyclohexyl)-6-(5-(trifluoromethyl)-1,2,4-oxadiazol-3-yl)isoindolin-1-one], the inhibition at 1 µM in assay [1] amounted to 68%; in assay [2] it was 5%; in assay [3] it was 75%.
For `CC1(C(=O)N[C@@H]2CCCC[C@@H]2N2Cc3ccc(-c4noc(C(F)(F)F)n4)cc3C2=O)COC1` (relative stereo) [Example 200, 3-methyl-N-(cis-2-(1-oxo-6-(5-(trifluoromethyl)-1,2,4-oxadiazol-3-yl)-1,3-dihydro-2H-isoindol-2-yl)cyclohexyl)oxetane-3-carboxamide] the same measures were 96%, 35% and 85%.
Take `CC(CO)(CCl)C(=O)N[C@@H]1CCCC[C@H]1N1Cc2ccc(-c3noc(C(F)(F)F)n3)cc2C1=O` (relative stereo) [Example 203, 3-chloro-2-(hydroxymethyl)-2-methyl-N-(trans-2-(1-oxo-6-(5-(trifluoromethyl)-1,2,4-oxadiazol-3-yl)-1,3-dihydro-2H-isoindol-2-yl)cyclohexyl)propanamide]: the inhibition at 1 µM in assay [1] worked out at 100%; in assay [2], 8%; in assay [3], 69%.
As for `CC(CO)(CCl)C(=O)N[C@@H]1CCCC[C@H]1N1Cc2ccc(-c3noc(C(F)(F)F)n3)cc2C1=O` (relative stereo) [Example 204, 3-chloro-2-(hydroxymethyl)-2-methyl-N-(trans-2-(1-oxo-6-(5-(trifluoromethyl)-1,2,4-oxadiazol-3-yl)-1,3-dihydro-2H-isoindol-2-yl)cyclohexyl)propanamide], in assay [1], the “HDAC6 inhibitory rate (%) (1 μM)” value is 99%. Moreover, the “HDAC1 inhibitory rate (%) (1 μM)” value in assay [2] is 7%. For the same compound, in assay [3], the “HDAC9 inhibitory rate (%) (1 μM)” value turned out to be 71%.
As for `O=C(N[C@@H]1CCOC[C@@H]1N1Cc2ccc(-c3noc(C(F)(F)F)n3)cc2C1=O)C1CC1(F)F` (single isomer, unassigned) [Example 211, (1R) or (1S)-2,2-difluoro-N-((3R,4R)-3-(1-oxo-6-(5-(trifluoromethyl)-1,2,4-oxadiazol-3-yl)-1,3-dihydro-2H-isoindol-2-yl)tetrahydro-2H-pyran-4-yl)cyclopropanecarboxamide], the “HDAC6 inhibitory rate (%) (1 μM)” value in assay [1] stood at 43%. Also, in assay [2], the “HDAC1 inhibitory rate (%) (1 μM)” value was −1%. Further, in assay [3], the “HDAC9 inhibitory rate (%) (1 μM)” value stood at 33%.
`O=C(N[C@@H]1CCOC[C@@H]1N1Cc2ccc(-c3noc(C(F)(F)F)n3)cc2C1=O)C1CC1(F)F` (single isomer, unassigned) [Example 212, (1R) or (1S)-2,2-difluoro-N-((3R,4R)-3-(1-oxo-6-(5-(trifluoromethyl)-1,2,4-oxadiazol-3-yl)-1,3-dihydro-2H-isoindol-2-yl)tetrahydro-2H-pyran-4-yl)cyclopropanecarboxamide]: in assay [1], the “HDAC6 inhibitory rate (%) (1 μM)” value amounted to 82%. In addition, the “HDAC1 inhibitory rate (%) (1 μM)” value in assay [2] was found to be 12%. Besides, the “HDAC9 inhibitory rate (%) (1 μM)” value in assay [3] is recorded as 58%.
As to `O=C(N[C@H]1CCOC[C@H]1N1Cc2ccc(-c3noc(C(F)(F)F)n3)cc2C1=O)C1CC1(F)F` (single isomer, unassigned) [Example 213, (1R) or (1S)-2,2-difluoro-N-((3S,4S)-3-(1-oxo-6-(5-(trifluoromethyl)-1,2,4-oxadiazol-3-yl)-1,3-dihydro-2H-isoindol-2-yl)tetrahydro-2H-pyran-4-yl)cyclopropanecarboxamide], the inhibition at 1 µM in assay [1] is 96%; in assay [3] it was 77%. Also, the “HDAC1 inhibitory rate (%) (1 μM)” value in assay [2] is given as 31%.
`O=C(N[C@H]1CCOC[C@H]1N1Cc2ccc(-c3noc(C(F)(F)F)n3)cc2C1=O)C1CC1(F)F` (single isomer, unassigned) [Example 214, (1R) or (1S)-2,2-difluoro-N-((3S,4S)-3-(1-oxo-6-(5-(trifluoromethyl)-1,2,4-oxadiazol-3-yl)-1,3-dihydro-2H-isoindol-2-yl)tetrahydro-2H-pyran-4-yl)cyclopropanecarboxamide]: in assay [1], the “HDAC6 inhibitory rate (%) (1 μM)” value was determined as 98%. Also, in assay [2], the “HDAC1 inhibitory rate (%) (1 μM)” value came out at 68%. Further, the “HDAC9 inhibitory rate (%) (1 μM)” value in assay [3] is 97%.
Regarding `O=C1c2cc(-c3noc(C(F)(F)F)n3)ccc2CN1C1CCNC[C@@H]1c1ccc(Cl)cc1` (stereo in doubt) [Example 51, 2-(trans-3-(4-chlorophenyl)piperidin-4-yl)-6-(5-(trifluoromethyl)-1,2,4-oxadiazol-3-yl)isoindolin-1-one], the figures for the inhibition at 1 µM in assay [1], in assay [2] and in assay [3] were 98%, 94% and 99%, respectively.
Take `O=C1c2cc(-c3noc(C(F)(F)F)n3)ccc2CN1C1CCNC[C@@H]1c1cc(Cl)cc(Cl)c1` (stereo in doubt) [Example 58, 2-(trans-3-(3,5-dichlorophenyl)piperidin-4-yl)-6-(5-(trifluoromethyl)-1,2,4-oxadiazol-3-yl)isoindolin-1-one]: the results for the inhibition at 1 µM in assay [1], in assay [2] and in assay [3] were 98%, 99% and 99%, respectively.
Turning to `O=C1CC(C(=O)N[C@@H]2CCCCC2N2Cc3ccc(-c4noc(C(F)(F)F)n4)cc3C2=O)CN1` (stereo in doubt) [Example 131, (3R)-5-oxo-N-((1R,2R)-2-(1-oxo-6-(5-(trifluoromethyl)-1,2,4-oxadiazol-3-yl)-1,3-dihydro-2H-isoindol-2-yl)cyclohexyl)pyrrolidine-3-carboxamide], the inhibition at 1 µM was 88% in assay [1], 0% in assay [2] and 31% in assay [3].
The matching figures for `CC(C)(C)OC(=O)N1CC[C@@H](N2Cc3ccc(-c4noc(C(F)(F)F)n4)cc3C2=O)[C@H](c2ccccc2)C1` [Example 13, tert-butyl (3R,4R)-4-(1-oxo-6-(5-(trifluoromethyl)-1,2,4-oxadiazol-3-yl)-1,3-dihydro-2H-isoindol-2-yl)-3-phenylpiperidine-1-carboxylate]: 101%, 53% and 84%.
For `CC(C)(C)OC(=O)N1CC[C@H](N2Cc3ccc(-c4noc(C(F)(F)F)n4)cc3C2=O)[C@H](c2ccccc2)C1` [Example 14, tert-butyl (3R,4S)-4-(1-oxo-6-(5-(trifluoromethyl)-1,2,4-oxadiazol-3-yl)-1,3-dihydro-2H-isoindol-2-yl)-3-phenylpiperidine-1-carboxylate], the inhibition at 1 µM turned out to be 68% in assay [1], 0% in assay [2] and 48% in assay [3].
The matching figures for `O=C1c2cc(-c3noc(C(F)(F)F)n3)ccc2CN1[C@@H]1CCNC[C@H]1c1ccccc1` [Example 15, 2-((3R,4R)-3-phenylpiperidin-4-yl)-6-(5-(trifluoromethyl)-1,2,4-oxadiazol-3-yl)isoindolin-1-one]: 98%, 97% and 99%.
The matching figures for `O=C1c2cc(-c3noc(C(F)(F)F)n3)ccc2CN1[C@H]1CCNC[C@H]1c1ccccc1` [Example 16, 2-((3R,4S)-3-phenylpiperidin-4-yl)-6-(5-(trifluoromethyl)-1,2,4-oxadiazol-3-yl)isoindolin-1-one]: 98%, 49% and 87%.

(Values after US10308643B2, “Heterocyclic compound” (Takeda Pharmaceutical Company Limited, priority 2015, dated 2019).)
